Data set [1] relates to BALB/c mice. It is filed as in vivo. The source says:
(§1) The rodent retina is widely used to investigate retinal diseases, as well as the response of central nervous system neurons to injury. Light-induced retinal damage (phototoxicity) selectively brings about photoreceptor cell death. Thus, this model is useful for studying the potential mechanisms underlying photoreceptor death and the subsequent retinal degeneration processes since it mimics the photoreceptor degeneration that forms the main characteristic of age-related macular degeneration.
(§2) Aliquots were removed from the refrigerator and allowed to warm to room temperature for at least 30 minutes before dosing. The positive control, BDNF, was reconstituted with 0.9% Sodium Chloride for Injection, USP at a concentration of 1 μg/μL. Any residual volumes were discarded.
(§3) Thirty-four (34) male BALB/c mice were received from Charles River, St Constant.
The dose volume for each eye/dose was 10 μL. The formulations were stirred continuously during dose administration and were retained on wet ice between doses.
(§4) The positive control, BDNF, was administered to Group 4 animals by single bilateral intravitreal (IVT) injection on Day 1. The dose volume was 1 μL/eye. Animals were anesthetized for the dosing procedure using an isoflurane/oxygen mix and/or a sedative cocktail (ketamine 100 mg/kg; xylazine 10 mg/kg; half or quarter dose if needed given by intraperitoneal injection). Injections were made using a glass microneedle connected to a Hamilton syringe via a sclera pilot hole created with a 30 G needle. A bland lubricating ointment was applied to the eyes following dosing.
On Day 2, animals were transferred to the blue light bins (housed individually). Light fixtures with bulbs emitting blue light (460 to 490 nm; Philips F40/BB Special Blue F40T12/BB) were attached to separate housing racks directly above the cages, such that all animals received similar light exposure. […] Hiding devices/tubes and bedding were not available in the bins.
The anesthetic used was ketamine (100 mg/kg) and xylazine (10 mg/kg).
All animals were euthanized on Day 8 and underwent exsanguination from the abdominal aorta after carbon dioxide asphyxiation.
One eye from each animal was embedded in paraffin, sectioned, mounted on glass slides, and stained with hematoxylin and eosin.
The outer nuclear layer (ONL) thickness (number of cell layers) were counted at 4 locations in the retina and a microscopic evaluation of the retina, including pigmented retinal epithelial cells, was conducted.

For data set [2], the system named is BALB/c mice. Format: in vivo. Particulars: for Group mean of the number of cell layers in retinal outer nuclear layer: placebo 7.22.
Excerpt: as §1, §2, §3
The test item and placebo were administered by twice-daily topical ocular instillation from Days 1 to 7, separated by at least 8 hours. The dose volume for each eye/dose was 10 μL. The formulations were stirred continuously during dose administration and were retained on wet ice between doses.
as §4
On Day 2, animals were transferred to the blue light bins (housed individually). Light fixtures with bulbs emitting blue light (460 to 490 nm; Philips F40/BB Special Blue F40T12/BB) were attached to separate housing racks directly above the cages, such that all animals received similar light exposure. The light intensity in the bins was measured using a light meter; the average intensity was 550 lux. Hiding devices/tubes and bedding were not available in the bins.
Mortality/moribundity checks were performed twice daily, once in the morning and once in the afternoon, throughout the study. Detailed examinations were performed weekly. Individual body weights were measured twice pre-treatment and at necropsy.
Electroretinography (ERG) was performed once pre-treatment and once at the end of Week 1 following overnight dark adaptation. The anesthetic used was ketamine (100 mg/kg) and xylazine (10 mg/kg).
All animals were euthanized on Day 8 and underwent exsanguination from the abdominal aorta after carbon dioxide asphyxiation. No necropsy examinations were performed.
One eye from each animal was embedded in paraffin, sectioned, mounted on glass slides, and stained with hematoxylin and eosin. The other eye was retained.
Histopathological evaluation was performed by a board-certified veterinary pathologist or veterinary pathologist with training and experience in laboratory animal pathology. The outer nuclear layer (ONL) thickness (number of cell layers) were counted at 4 locations in the retina and a microscopic evaluation of the retina, including pigmented retinal epithelial cells, was conducted. Representative images were captured for consultation and illustrative purposes.

The target of data set [3] is T1, human adenosine A3 receptor (Homo sapiens, UniProt P0DMS8).
T1 sequence (P0DMS8 1-318): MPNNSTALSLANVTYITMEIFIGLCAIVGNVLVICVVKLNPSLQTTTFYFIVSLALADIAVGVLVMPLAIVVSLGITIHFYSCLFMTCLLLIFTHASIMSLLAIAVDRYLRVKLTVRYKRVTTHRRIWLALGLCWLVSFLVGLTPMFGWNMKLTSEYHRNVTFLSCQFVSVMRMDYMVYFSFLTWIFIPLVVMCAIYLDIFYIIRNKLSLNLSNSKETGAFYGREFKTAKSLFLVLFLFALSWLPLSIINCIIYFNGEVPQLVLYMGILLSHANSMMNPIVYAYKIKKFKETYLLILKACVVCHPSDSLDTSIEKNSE
Kind of data set: Inhibition of forskolin-stimulated adenylyl cyclase via A3 receptor, CHO cell membranes. Format: biochemical. Particulars: membranes of CHO cells stably transfected with human A3.
Description: The A1 and A3 receptor-mediated inhibition of forskolin-stimulated adenylyl cyclase activity was tested in membranes prepared from CHO cells stably transfected with the human A1 and A3 adenosine receptors.

The next data set has as its target A2A adenosine receptor (Homo sapiens, UniProt P29274). Kind of data set: Adenosine receptor binding, A1 > A2A selectivity. Particulars: ratio of Ki values.

Several values for one entry are separate records, joined by “and”; a condition that tells them apart may be missing. Identical values can stand only once. Like-named read-outs stand apart in the source and are kept apart here.

What is called EC50 is the midpoint of the concentration-response curve. Read a low EC50 as a more potent agent.

A2A adenosine receptor, sequence (P29274 whole entry): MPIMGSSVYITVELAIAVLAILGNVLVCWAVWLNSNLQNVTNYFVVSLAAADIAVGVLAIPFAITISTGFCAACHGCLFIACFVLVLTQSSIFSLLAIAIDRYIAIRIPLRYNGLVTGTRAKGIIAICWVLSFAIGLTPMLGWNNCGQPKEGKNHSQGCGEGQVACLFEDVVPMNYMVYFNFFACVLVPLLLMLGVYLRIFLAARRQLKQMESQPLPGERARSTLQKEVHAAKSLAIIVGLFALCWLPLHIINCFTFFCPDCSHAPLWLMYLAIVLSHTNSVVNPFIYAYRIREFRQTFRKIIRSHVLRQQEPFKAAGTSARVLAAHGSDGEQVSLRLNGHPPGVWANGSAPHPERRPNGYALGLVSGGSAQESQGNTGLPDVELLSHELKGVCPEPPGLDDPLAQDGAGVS
Description for A2A adenosine receptor: The cell suspension is then homogenized in ice-cold hypotonic buffer (5 mM Tris/HCl mM EDTA, pH 7.4) and the homogenate is spun for 10 minutes (4° C.) at 1,000 g.

In the case of `O=[N+]([O-])OC[C@H]1O[C@@H](n2cnc3c(NC4CCCC4)ncnc32)[C@H](O)[C@@H]1O` [Compound A, ((2R,3S,4R,5R)-5-(6-(cyclopentylamino)-9H-purin-9-yl)-3,4-dihydroxytetrahydrofuran-2-yl)methyl nitrate], the “Average number of cell layers in the ONL, placebo compared to treated group” value in the data set with BALB/c mice [1] (600 or 900 μg/eye/day topical) was “reduced in the placebo group”. Further, the “B-wave amplitude following 0 dB scotopic flash stimuli” value in the data set with BALB/c mice [1] (600 or 900 μg/eye/day, versus placebo control, comparable to BDNF positive control) is listed as “higher”. Moreover, the “Number of nuclear bodies in the ONL based on average ONL thickness counts” value in the data set on BALB/c mice [1] (low dose group (600 μg/eye/day), compared with all groups) was “retained the greatest number of nuclear bodies in the ONL”. Besides, the “Overall ERG function and ONL cellularity after blue light exposure” value with BALB/c mice [1] (two or three-times daily at 600 or 900 μg/eye/day topical, 1100 lux for 6 hours on Day 2) was “preservation of ERG function and cellularity in the ONL layer of the retina”. Besides, the “Incidence of minimal to moderate decrease in cellularity of the retina” value in the data set with BALB/c mice [2] (300 μg/eye/day topical, placebo 6/8) is recorded as 7/8. Further, the figures for the “Group mean of the number of cell layers in retinal outer nuclear layer” value in the data set on BALB/c mice [2] (300 μg/eye/day topical) and in the data set on BALB/c mice [2] (600 μg/eye/day topical) were 7.28 layers and 8.56 layers, respectively. Moreover, the “Incidence of minimally decreased retinal cellularity” value with BALB/c mice [2] (600 μg/eye/day topical, other animals not affected at all) is reported as 2/8. In the data set on BALB/c mice [2] (600 μg/eye/day, 7 days twice daily topical ocular instillation), the “Overall effect on incidence and severity of decreased retinal cellularity” value is listed as “protective effect”. In addition, the “Retinal outer nuclear layer thickness (Mean number of nuclei), individual animals” value is 10.00 and 9.25 and 6.50 and 5.25 and 7.25 and 6.25 and 5.50 and 8.25 in the data set with BALB/c mice [2] (Group 2, low dose 300 μg/eye/day, animals 2001-2008, mean of 4 measurements per retina); 9.25 and 9.00 and 9.75 and 7.75 (2×) and 9.50 and 8.75 and 6.75 with BALB/c mice [2] (Group 3, high dose 600 μg/eye/day, animals 3001-3008, mean of 4 measurements per retina). The “Abnormalities in general appearance or condition of the animals” value in the data set on BALB/c mice [2] (male BALB/c mice, dosing period, 300 or 600 μg/eye/day topical twice daily Days 1 to 7) is listed as “No abnormalities were observed”. In addition, in the data set with BALB/c mice [2] (one week after blue light exposure, 300 or 600 μg/eye/day, versus other groups including placebo), the “ERG parameters (scotopic single flash 0 dB, A-wave and B-wave)” value is given as “comparable across treatment groups”. Also, the EC50 in data set [3] was above 100000 nM.
`O=[N+]([O-])OC[C@H]1O[C@@H](n2cnc3c(NC4CCOC4)ncnc32)[C@H](O)[C@@H]1O` (stereo partly drawn) [Compound D, ((2R,3S,4R,5R)-3,4-dihydroxy-5-(6-(tetrahydrofuran-3-ylamino)-9H-purin-9-yl)tetrahydrofuran-2-yl)methyl nitrate]: at A2A adenosine receptor, the “A1 > A2A SELECTIVITY [KiA2(nm)/KiA1(nm)]” value is on record as above 9434.

B1: BDNF: Brain Derived Neurotrophic Factor, positive control given by single bilateral intravitreal injection (protein, UniProt P23560 19-247, looked up)
Neurotrophic factor BDNF …: APMKEANIRGQGGLAYPGVRTHGTLESVNGPKAGSRGLTSLADTFEHVIEELLDEDQKVRPNEENNKDADLYTSRVMLSSQVPLEPPLLFLLEEYKNYLDAANMSMRVRRHSDPARRGELSVCDSISEWVTAADKKTAVDMSGGTVTVLEKVPVSKGQLKQYFYETKCNPMGYTKEGCRGIDKRHWNSQCRTTQSYVRALTMDSKKRIGWRFIRIDTSCVCTLTIKRGR
On to B1, for which the “Average number of cell layers in the ONL, placebo compared to treated group” value in the data set with BALB/c mice [1] (BDNF control, 1 μg/eye IVT) is recorded as “reduced in the placebo group”. In addition, the “Group mean of the number of cell layers in retinal outer nuclear layer” value with BALB/c mice [2] (1 μg/eye single IVT injection Day 1) worked out at 8.75 layers. Moreover, in the data set with BALB/c mice [2] (Group 4, 1 μg/eye/day IVT, animals 4001-4008, mean of 4 measurements per retina), the “Retinal outer nuclear layer thickness (Mean number of nuclei), individual animals” value is 7.75 (2×) and 9.25 and 8.50 (2×) and 8.75 and 10.50 and 9.00.

(Values after patent US20160158267A1, “METHODS OF PREVENTING, REDUCING OR TREATING MACULAR DEGENERATION” (Inotek Pharmaceuticals Corporation, priority 2014, published 2016).)
